The record followed here is PubChem BioAssay (NCI).

Test in all cases: growth of human tumour cells (NCI), 48 h
The subject of test [1] is OVCAR-8 ovarian.
Test [2] concerns HL-60(TB) leukemia.
The subject of test [3] is HS 578T breast.
The test system of test [4] is SK-MEL-5 melanoma.
For test [5], the system named is A498 renal.
For test [6], the system named is EKVX NSCLC.
Test [7] concerns IGROV1 ovarian.
Test [8] deals with SF-539 CNS.
Test [9] has as its system ACHN renal.
For test [10], the system named is UO-31 renal.
The test system of test [11] is SF-268 CNS.
Test [12] deals with MALME-3M melanoma.
Test [13] has as its system HCC-2998 colon.
Test [14] relates to CCRF-CEM leukemia.
In test [15] the test system is MOLT-4 leukemia.
Test [16] relates to MDA-MB-231 breast.
Test [17] deals with COLO 205 colon.
Test [18] deals with TK-10 renal.
For test [19], the system named is KM12 colon.

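A five-concentration, 48-hour dose response in 96-well plates underlies each endpoint, interpolated linearly between surrounding concentrations. The concentration for full growth arrest is given as TGI.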 Where a SMILES comes first, the peptide text is derived from it. The star is where a group is joined. Cbz = O=C(OCc1ccccc1)*

On to `Clc1ccc(-c2nnc(C34CC5CC(CC(C5)C3)C4)o2)cc1`, for which the TGI in test [1], in test [2], in [3], in test [4], in test [5] and in test [6] was more than 100 µM in each case. The TGI in [7] was more than 100 µM; in [8], more than 100 µM; in test [9], more than 100 µM; in [10] it was 14.6 µM; in test [11], more than 100 µM; in [12], more than 100 µM. Further, the TGI in test [13], in test [14], in [15], in test [16] and in [17] was more than 100 µM throughout.

`N/C(COc1ccc(Cl)cc1)=N\NC(=O)c1ccncc1`: the TGI in test [1], in [2], in [3], in test [5], in test [6] and in test [7] was more than 100 µM each time. The TGI in [8], in [9], in test [11], in [12], in [13] and in test [18] was more than 100 µM throughout. The TGI in [19], in [14], in test [15], in test [16] and in test [17] was more than 100 µM in each case.

As to `CCOC(=O)c1nc2ccccc2nc1Oc1ccc(OC)cc1`, the TGI in test [1], in [2], in [3], in test [4], in test [5] and in [6] was more than 100 µM each time. Besides, the TGI in test [7], in test [8], in [9], in test [10], in test [11] and in test [12] was more than 100 µM throughout. Further, the TGI in [18], in test [19], in test [14], in test [15], in test [16] and in [17] was more than 100 µM each time.

As to `CC(C)(C)N(Cc1ccoc1)C(=O)/C=C\S(=O)c1ccccc1` (centres undefined), the TGI in [1] was 32.1 µM; in [2], 47.5 µM; in test [3] it was 68 µM; in test [4], 27.4 µM; in test [5], 68.1 µM; in test [6], 75.5 µM. For the same compound, the TGI is 32.9 µM in [7]; 42.9 µM in test [8]; 86.5 µM in test [9]; 27.6 µM in [10]; more than 100 µM in test [11]; 34.3 µM in test [13]. Also, the TGI in [18] was more than 100 µM; in [19], 34.5 µM; in test [14] it was more than 100 µM; in [15] it was more than 100 µM; in test [16], 42.3 µM; in test [17], 43.9 µM.

`CCOC(=O)C(CC(=O)OC)NC(=O)C(CC(=O)OC)NC(=O)C(CC(=O)OC)NC(=O)C(CC(=O)OC)NC(=O)OCc1ccccc1` (centres undefined) (Cbz-D(OMe)D(OMe)D(OMe)D(OMe)-OEt; configuration not given here): the TGI in test [1], in [2], in test [3], in test [4], in test [5] and in test [6] was more than 100 µM each time. Besides, the TGI in test [7], in [9], in test [10], in test [12], in test [13] and in test [18] was more than 100 µM each time. Also, the TGI in test [19], in test [15], in test [16] and in test [17] was more than 100 µM in each case.

Take `Cc1ccc(S(=O)(=O)NC2=NS(=O)(=O)c3cc(C)c(Cl)cc3S2)cc1`: the TGI in test [1], in test [2], in test [3], in test [4], in test [5] and in [6] was more than 100 µM throughout. Moreover, the TGI in [7], in test [8], in test [9], in test [10], in test [11] and in test [12] was more than 100 µM in each case. For the same compound, the TGI in test [13], in [18], in [19], in [15], in [16] and in test [17] was more than 100 µM in each case.

Regarding `Fc1ccc(Nc2nnc(-c3ccccn3)s2)cc1`, the TGI in test [1], in test [2], in test [3], in test [4], in test [5] and in [6] was more than 100 µM in each case. Besides, the TGI in test [7], in test [8], in [9], in [11], in test [12] and in test [18] was more than 100 µM in each case. Moreover, the TGI in [19], in test [14], in test [15], in [16] and in test [17] was more than 100 µM throughout.

For the compound `O=Cc1ccc(-c2cccc([N+](=O)[O-])c2)s1`, the TGI in test [1] was more than 100 µM; in test [2], more than 100 µM; in test [3] it was more than 100 µM; in test [4] it was more than 100 µM; in [5], 53.4 µM; in [6], more than 100 µM. The TGI in test [7], in test [8], in test [9], in test [10], in [11] and in test [13] was more than 100 µM in each case. The TGI in [18], in test [19], in test [14], in [15], in test [16] and in [17] was more than 100 µM throughout.
